From publication PMC4686731, “Screening of Pharmacologically Active Small Molecule Compounds Identifies Antifungal Agents Against Candida Biofilms” (Frontiers in Microbiology, 2015) come the findings set out here.

For experiment [1], the system named is C. albicans strain SC5314. Description: High-throughput screening (HTS) with antifungal susceptibility test, CellTiter-Glo ATP read-out. The format is cell-based, Candida albicans. Conditions: for inhibition at 10 µM: Candida albicans, SC5314, 24 h. The procedure:
(§1) The in vitro susceptibility of well-characterized wild-type C. albicans strain SC5314, which was provided by Prof. N.A.R. Gow (University of Aberdeen, Aberdeen, UK) was tested against 1280 compounds from the Library of Pharmacologically Active Compounds (LOPAC^1280TM, Sigma–Aldrich, USA). The screen was performed with C. albicans SC5314, and hits were further confirmed with the type strains C. dubliniensis MYA 577, C. glabrata ATCC 2001, C. kusei ATCC 6258, C. palapsilosis ATCC 22019, and C. tropicalis ATCC13803.
High-Throughput Screening was conducted using ASTs, according to the standard Clinical and Laboratory Standard Institute (CLSI) method ([Watamoto et al., 2009]). Inocula from 24-h yeast cultures on Sabouraud’s dextrose agar (SDA) (Gibco, UK) were adjusted to a turbidity equivalent to a 0.5 McFarland standard at 520 nm using a spectrophotometer. The suspension was diluted further with RPMI 1640 medium (Gibco, UK) to yield an inoculum concentration of 0.5 × 10^3 to 2.5 × 10^3 cells/mL. C. albicans was incubated with small-molecule compounds (10 μM) from LOPAC^1280TM, which total volume was 150 μL, in 96-well plates at 37°C for 24 h to evaluate the antifungal effects. After incubation, the viability of the fungal cells was determined using the CellTiter-Glo luminescent cell viability kit (Promega, USA). The CellTiter-Glo reagent (150 μL) was added to the medium and incubated for 15 min at room temperature with shaking at 900 rpm. The luminescent signals were detected using a luminometer (GloMax Discover System, Promega, USA). The resulting signal intensity corresponds to ATP amounts and thus to the number of viable microbial cells upon drug exposure ([Stylianou et al., 2014]). In all 96-well plates, 100 and 0% growth controls were included as microbes plus dimethyl sulfoxide (0.1%) and microbes plus amphotericin B (100 μM), respectively. All assays were performed at least as two biological replicates in triplicate. The ATP level of C. albicans cells, which corresponded to the cell metabolic activity and viability, was calculated for each compound using the following equation (Figure 1A).
Percentageinhibition=100 × 1-{(experimental-positivecontrolaverage)/(negativecontrolaverage-positivecontrolaverage)}
Wells were scored as hits if the percentage inhibition was >50%. Hit compounds were evaluated further to assess their antifungal effects.

For experiment [2], the system named is C. albicans SC5314 biofilm. Description: AST, biofilm mode. Conditions: Candida albicans, SC5314; biofilm mode (24 h biofilm); read-out: Minimum inhibitory concentration (MIC). The format is cell-based. The procedure: as §1
(§2) To investigate the antifungal effects of the hit compounds, ASTs were conducted using broth microdilution assays with high cell densities of the planktonic mode, adhesion phase and biofilm mode against Candida strains (C. albicans, C. dubliniensis, C. glabrata, C. kusei, C. palapsilosis, and C. tropicalis). First, high density cell (1 × 10^7 cells/mL) suspensions were added to the RPMI medium containing each hit compound (10–1000 μM) in 96-well plates and incubated at 37°C for 24 h. Next, the 50% minimum inhibitory concentrations (MICs) of high-density Candida planktonic cultures were determined using the CellTiter-Glo luminescent cell viability kit, as described above. The antifungal effects of the hit compounds were also evaluated in the adhesion phase and the biofilm mode, in the same manner as the planktonic mode. Candida biofilms were produced as described previously ([Jin et al., 2004]). In brief, Candida cells were grown on SDA at 37°C for 18 h. A loopful of the yeast culture was then inoculated into yeast nitrogen base (YNB) (Difco, USA) medium supplemented with 50 mM glucose. After overnight broth culture in a rotary shaker at 75 rpm, the cells were washed twice with 20 mL of PBS (pH 7.2, 0.1 M). The yeast cells were re-suspended in YNB supplemented with 100 mM glucose and adjusted to an optical density of 0.38 (1 × 10^7 cells/mL) at 520 nm. This standardized cell suspension was used immediately to form biofilms in the wells of 96-well polystyrene culture plates (Iwaki, Tokyo, Japan). First, the cells were incubated for 90 min at 37°C in a shaker at 75 rpm to allow yeast adherence to the well surface (adhesion phase), before the medium was aspirated and each well was washed once with PBS to remove non-adherent cells. YNB containing 100 mM glucose was then pipetted into each well and the plate was incubated at 37°C in a shaker at 75 rpm for 24 h. Non-adherent cells were removed by pipetting and the biofilms were washed twice with PBS. Following this biofilm growth phase, microscopic examination of the cultures was performed to exclude contamination. These ASTs were repeated on three different occasions.

Experiment [3] has as its system C. albicans SC5314. The experiment is described as follows: AST broth microdilution, high cell density planktonic mode. The experiment is classed as cell-based, Candida albicans. Conditions: 50% MIC, planktonic mode, 1 × 10^7 cells/mL, 24 h, read-out: Minimum inhibitory concentration (MIC). On the procedure: as §1, §2
In general terms: Broth dilution looks for growth in wells or tubes with falling amounts of substance.

For experiment [4], the system named is C. albicans SC5314. The experiment is described as follows: AST, adhesion phase. The format is cell-based. The conditions noted are these: Candida albicans, SC5314, 1.5 h; adhesion phase (90 min adherence); read-out: Minimum inhibitory concentration (MIC). The procedure:
as §1, §2

Setting [5] is: compound 10 μM, 0.5 × 10^3 to 2.5 × 10^3 cells/mL, 37°C, 24 h.

Structures are written as SMILES. Values after ≈ are worked out from the molar mass of the structure shown. Where a name gives a salt, the structure may show the parent alone. Read-outs that look alike come from different tables or passages of the source.

Consider `COc1ccc2c(c[n+](C)c3c4cc5c(cc4ccc23)OCO5)c1OC` [Chelerythrine chloride], for which the inhibition at 10 µM in experiment [1] (compound 10 μM, 0.5 × 10^3 to 2.5 × 10^3 cells/mL, 37°C, 24 h, read-out: percent inhibition of the metabolic activity (ATP level) of C. albicans) came to 82.4%.
In the case of `CCCCCCCCCCCCCCCC(=O)OC(CC(=O)O)C[N+](C)(C)C.[Cl-]` (racemic) [Palmitoyl-DL-carnitine chloride], the “percent inhibition of the metabolic activity (ATP level) of C. albicans” value in experiment [1] (setting [5]) came to 76.0%.
`CN[C@@H]1C[C@@H](c2ccc(Cl)c(Cl)c2)c2ccccc21` [Indatraline hydrochloride]: the inhibition at 10 µM in experiment [1] (read-out: percent inhibition of the metabolic activity (ATP level) of C. albicans, compound 10 μM, 0.5 × 10^3 to 2.5 × 10^3 cells/mL, 37°C, 24 h) is 85.2%.
`Cc1cc(N)c2ccccc2[n+]1CCCCCCCCCC[n+]1c(C)cc(N)c2ccccc21.O.[Cl-].[Cl-]` [Dequalinium chloride hydrate]: the “percent inhibition of the metabolic activity (ATP level) of C. albicans” value in experiment [1] (setting [5]) worked out at 71.5%.
In the case of `C[C@@H]1[C@H](O)[C@@H](C)/C=C/C=C/C=C/C=C/C=C/C=C/C=C/[C@H](O[C@@H]2O[C@H](C)[C@@H](O)[C@H](N)[C@@H]2O)C[C@@H]2O[C@](O)(C[C@@H](O)C[C@@H](O)[C@H](O)CC[C@@H](O)C[C@@H](O)CC(=O)O[C@H]1C)C[C@H](O)[C@H]2C(=O)O` [AMB, amphotericin B], the MIC in experiment [2] was 62.5 µM (≈ 57.8 µg/mL); with C. albicans SC5314 [3], 3.9 µM (≈ 3.6 µg/mL); in the experiment with C. albicans SC5314 [3] (Candida albicans, SC5314, 24 h) it was < 3.9 µM; in the experiment with C. albicans SC5314 [4], 15.6 µM (≈ 14.4 µg/mL).
